Laboratory results as given in PubChem BioAssay (NCI).
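Protocol summary: plate cells (96-well), add compound at 5 concentrations, incubate 48 h, interpolate endpoints linearly. GI50 = concentration required for 50% inhibition of growth. TGI denotes the concentration required for complete inhibition of growth.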

Columns and labels:
Assay in all cases: inhibition of tumour cell growth, NCI panel, 48 h
[1] = test system: CCRF-CEM leukemia
[2] = test system: DU-145 prostate
[3] = test system: HOP-92 NSCLC
[4] = test system: HS 578T breast
[5] = test system: K-562 leukemia
[6] = test system: MDA-MB-435
[7] = test system: MOLT-4 leukemia
[8] = test system: NCI-H460 lung
[9] = test system: NCI/ADR-RES ovarian
[10] = test system: RPMI-8226 leukemia
[11] = test system: RXF 393 renal
[12] = test system: SK-MEL-5 melanoma
[13] = test system: SN12C renal
[14] = test system: SNB-75 CNS
[15] = test system: SR leukemia
[16] = test system: T-47D breast
[17] = test system: TK-10 renal
[18] = test system: UACC-62 melanoma
[19] = test system: UO-31 renal
[20] = test system: A498 renal
[21] = test system: ACHN renal
[22] = test system: CAKI-1 renal
[23] = test system: COLO 205 colon
[24] = test system: HCC-2998 colon
[25] = test system: HCT-15 colon
[26] = test system: HL-60(TB) leukemia
[27] = test system: HT29 colon
[28] = test system: IGROV1 ovarian
[29] = test system: KM12 colon
[30] = test system: LOX IMVI melanoma
[31] = test system: M14 melanoma
[32] = test system: MCF7 breast
[33] = test system: MDA-MB-231 breast
[34] = test system: NCI-H226 lung
[35] = test system: NCI-H23 lung
[36] = test system: NCI-H522 lung
[37] = test system: OVCAR-3 ovarian
[38] = test system: OVCAR-5 ovarian
[39] = test system: OVCAR-8 ovarian
[40] = test system: PC-3 prostate
[41] = test system: SF-268 CNS
[42] = test system: SF-295 CNS
[43] = test system: SF-539 CNS
[44] = test system: SK-MEL-2 melanoma
[45] = test system: SK-MEL-28 melanoma
[46] = test system: SK-OV-3 ovarian
[47] = test system: SNB-19 CNS
[48] = test system: SW-620 colon
[49] = test system: U251 CNS
[50] = test system: UACC-257 melanoma

N#Cc1cccc(CSc2ncnc3nc[nH]c23)c1
GI50 [1]: 61.8 µM
GI50 [2]: 73.6 µM
GI50 [3]: 16.5 µM
TGI [3]: 97.5 µM
GI50 [4]: 64.2 µM
GI50 [5]: 38.2 µM
GI50 [6]: 89.8 µM
GI50 [7]: 85.2 µM
GI50 [8]: 74 µM
GI50 [9]: 27.6 µM
TGI [9]: 80.8 µM
GI50 [10]: 40.4 µM
GI50 [11]: 32.8 µM
GI50 [12]: 89.5 µM
GI50 [13]: 91 µM
GI50 [14]: 23.7 µM
TGI [14]: 87.7 µM
GI50 [15]: 38.9 µM
GI50 [16]: 56 µM
GI50 [17]: 99.2 µM
GI50 [18]: 75.7 µM
GI50 [19]: 71.9 µM

N=C(N)c1ccc(-c2ccc(-c3cc(Cl)cc(Cl)c3)o2)nc1
GI50 [20]: 1.47 µM
TGI [20]: 3.22 µM
GI50 [21]: 1.81 µM
TGI [21]: 3.36 µM
GI50 [22]: 1.76 µM
TGI [22]: 3.35 µM
GI50 [23]: 2.01 µM
TGI [23]: 3.78 µM
GI50 [2]: 1.87 µM
TGI [2]: 3.37 µM
GI50 [24]: 1.92 µM
TGI [24]: 3.8 µM
GI50 [25]: 1.8 µM
TGI [25]: 3.46 µM
GI50 [26]: 2.42 µM
TGI [26]: 4.62 µM
GI50 [3]: 1.56 µM
TGI [3]: 3.14 µM
GI50 [4]: 1.87 µM
TGI [4]: 3.93 µM
GI50 [27]: 1.76 µM
TGI [27]: 3.69 µM
GI50 [28]: 2.09 µM
TGI [28]: 3.79 µM
GI50 [5]: 1.5 µM
TGI [5]: 3.88 µM
GI50 [29]: 1.85 µM
TGI [29]: 3.44 µM
GI50 [30]: 1.77 µM
TGI [30]: 3.41 µM
GI50 [31]: 1.9 µM
TGI [31]: 3.63 µM
GI50 [32]: 1.73 µM
TGI [32]: 3.6 µM
GI50 [33]: 1.65 µM
TGI [33]: 3.3 µM
GI50 [6]: 1.76 µM
TGI [6]: 3.38 µM
GI50 [7]: 2.46 µM
TGI [7]: 5.05 µM
GI50 [34]: 2.13 µM
TGI [34]: 5.19 µM
GI50 [35]: 1.96 µM
TGI [35]: 3.93 µM
GI50 [8]: 1.9 µM
TGI [8]: 3.63 µM
GI50 [36]: 1.98 µM
TGI [36]: 3.86 µM
GI50 [9]: 1.93 µM
TGI [9]: 3.81 µM
GI50 [37]: 1.88 µM
TGI [37]: 3.39 µM
GI50 [38]: 1.73 µM
TGI [38]: 3.43 µM
GI50 [39]: 1.88 µM
TGI [39]: 3.83 µM
GI50 [40]: 1.74 µM
TGI [40]: 3.25 µM
GI50 [10]: 2.03 µM
TGI [10]: 4.33 µM
GI50 [41]: 1.82 µM
TGI [41]: 3.46 µM
GI50 [42]: 1.92 µM
TGI [42]: 3.63 µM
GI50 [43]: 1.76 µM
TGI [43]: 3.25 µM
GI50 [44]: 2.09 µM
TGI [44]: 3.9 µM
GI50 [45]: 1.8 µM
TGI [45]: 3.59 µM
GI50 [12]: 1.77 µM
TGI [12]: 3.25 µM
GI50 [46]: 1.95 µM
TGI [46]: 3.51 µM
GI50 [13]: 1.62 µM
TGI [13]: 3.16 µM
GI50 [47]: 1.63 µM
TGI [47]: 3.1 µM
GI50 [14]: 1.64 µM
TGI [14]: 3.15 µM
GI50 [15]: 1.78 µM
TGI [15]: 4.8 µM
GI50 [48]: 1.78 µM
TGI [48]: 3.41 µM
GI50 [17]: 1.87 µM
TGI [17]: 3.5 µM
GI50 [49]: 1.76 µM
TGI [49]: 3.31 µM
GI50 [50]: 1.84 µM
TGI [50]: 3.59 µM
GI50 [18]: 1.78 µM
TGI [18]: 3.36 µM
GI50 [19]: 1.54 µM
TGI [19]: 3.11 µM
